Assay results: PubChem BioAssay AID330 (DTP/NCI, 2004)
Several values for one entry are separate records, joined by “and”; a condition that tells them apart may be missing. Identical values can stand only once. Toxic doses and inconclusive results are not listed.

System: P388 leukemia ip, CD2F1 mice, survival T/C
Experiment: NCI In Vivo Anticancer Drug Screen. Data for tumor model P388 Leukemia (intraperitoneal) in CD2F1 (CDF1) mice
Details: endpoint: median survival time, higher = longer survival
Method in brief: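 Mice carrying the transplanted tumor received test compound or vehicle. Survival was recorded in each group, and the value is the treated-group measurement divided by that of the vehicle-treated control group.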

[1] = dose: 60.0 mg/kg/injection, schedule: Q01DX005 (ip), vehicle: saline with Tween-80
[2] = dose: 100.0 mg/kg/injection, schedule: Q04DX002 (ip), vehicle: saline with Tween-80
[3] = dose: 200.0 mg/kg/injection, schedule: Q04DX002 (ip), vehicle: saline with Tween-80
[4] = dose: 100.0 mg/kg/injection, schedule: Q01DX001 (ip), vehicle: saline with Tween-80
[5] = dose: 200.0 mg/kg/injection, schedule: Q01DX001 (ip), vehicle: saline with Tween-80
[6] = dose: 400.0 mg/kg/injection, schedule: Q01DX001 (ip), vehicle: saline with Tween-80
[7] = dose: 50.0 mg/kg/injection, schedule: Q01DX009 (ip), vehicle: saline with Tween-80
[8] = dose: 100.0 mg/kg/injection, schedule: Q01DX009 (ip), vehicle: saline with Tween-80

CC(=O)c1ccc(N/N=[N+](/C)[O-])cc1
T/C [1]: 99 % of control | T/C (dose: 120.0 mg/kg/injection, schedule: Q01DX005 (ip), vehicle: saline with Tween-80): 101 % of control | T/C (dose: 240.0 mg/kg/injection, schedule: Q01DX005 (ip), vehicle: saline with Tween-80): 99 % of control

COC1=C(OC)C(=O)C(SCCCCCCC2CCCCC2)=C(C)C1=O
T/C (dose: 60.0 mg/kg/injection, schedule: Q01DX005 (ip), vehicle: saline + Tween-80 + alcohol): 110 % of control | T/C (dose: 120.0 mg/kg/injection, schedule: Q01DX005 (ip), vehicle: saline + Tween-80 + alcohol): 115 % of control

NP(N)(=O)NC(=O)c1ccc(F)cc1
T/C (dose: 50.0 mg/kg/injection, schedule: Q01DX005 (ip), vehicle: saline with Tween-80): 100 % of control | T/C (dose: 100.0 mg/kg/injection, schedule: Q01DX005 (ip), vehicle: saline with Tween-80): 100 % of control

O=C1c2cccc3cc([N+](=O)[O-])cc(c23)C(=O)N1CCN1CCN(CCN2C(=O)c3cccc4cc([N+](=O)[O-])cc(c34)C2=O)CC1
T/C [2]: 95 % of control | T/C [3]: 98 % of control | T/C (dose: 400.0 mg/kg/injection, schedule: Q04DX002 (ip), vehicle: saline with Tween-80): 90 % of control

COc1ccc2c(ccc3c(N)ncnc32)c1
T/C [2]: 92 % of control | T/C [3]: 103 % of control

C=C[P+](c1ccccc1)(c1ccccc1)c1ccccc1
T/C (dose: 0.37 mg/kg/injection, schedule: Q01DX009 (ip), vehicle: saline): 104 % of control | T/C (dose: 0.75 mg/kg/injection, schedule: Q01DX009 (ip), vehicle: saline): 105 % of control | T/C (dose: 1.5 mg/kg/injection, schedule: Q01DX009 (ip), vehicle: saline): 116 % of control

CCOC(=O)CSc1nnc(-c2cc(OC)c(OC)c(OC)c2)o1
T/C (dose: 100.0 mg/kg/injection, schedule: Q01DX001 (ip), vehicle: Klucel (hydroxypropylcellulose) (HPC)): 98 % of control | T/C (dose: 200.0 mg/kg/injection, schedule: Q01DX001 (ip), vehicle: Klucel (hydroxypropylcellulose) (HPC)): 104 % of control | T/C (dose: 400.0 mg/kg/injection, schedule: Q01DX001 (ip), vehicle: Klucel (hydroxypropylcellulose) (HPC)): 92 % of control

C[N+]1(Cc2ccccc2)CCC(O)(C(=O)c2ccccc2)CC1 (configuration not stated)
T/C (dose: 15.0 mg/kg/injection, schedule: Q01DX005 (ip), vehicle: saline with Tween-80): 98 % of control | T/C (dose: 30.0 mg/kg/injection, schedule: Q01DX005 (ip), vehicle: saline with Tween-80): 100 % of control | T/C [1]: 104 % of control and 86 % of control

Oc1ccc2ccccc2c1C=Nc1ccc(N=Cc2c(O)ccc3ccccc23)cc1
T/C [4]: 91 % of control | T/C [5]: 90 % of control | T/C [6]: 91 % of control

[N-]=[N+]=NC(=O)c1ccccn1
T/C (dose: 25.0 mg/kg/injection, schedule: Q01DX009 (ip), vehicle: saline with Tween-80): 101 % of control | T/C [7]: 113 % of control | T/C [8]: 120 % of control

COc1ccc(Oc2cc3c[n+](C)ccc3cc2OC)cc1
T/C (dose: 12.5 mg/kg/injection, schedule: Q01DX009 (ip), vehicle: saline): 111 % of control | T/C (dose: 25.0 mg/kg/injection, schedule: Q01DX009 (ip), vehicle: saline): 117 % of control

CC(C)NC(=O)OCc1cc(-c2ccccc2)n(C)c1-c1ccccc1
T/C (dose: 6.25 mg/kg/injection, schedule: Q01DX009 (ip), vehicle: distilled water + Tween-80): 104 % of control and 98 % of control | T/C (dose: 12.5 mg/kg/injection, schedule: Q01DX009 (ip), vehicle: distilled water + Tween-80): 107 % of control and 110 % of control and 113 % of control | T/C (dose: 25.0 mg/kg/injection, schedule: Q01DX009 (ip), vehicle: distilled water + Tween-80): 117 % of control and 120 % of control and 122 % of control | T/C (dose: 50.0 mg/kg/injection, schedule: Q01DX009 (ip), vehicle: distilled water + Tween-80): 105 % of control and 114 % of control and 116 % of control | T/C (dose: 100.0 mg/kg/injection, schedule: Q01DX009 (ip), vehicle: distilled water + Tween-80): 92 % of control

O=C(c1ccccc1)N1c2ccccc2N(C(=O)c2ccccc2)C1c1nc2ccccc2n1C(=O)c1ccccc1
T/C [7]: 109 % of control | T/C [8]: 100 % of control | T/C (dose: 200.0 mg/kg/injection, schedule: Q01DX009 (ip), vehicle: saline with Tween-80): 102 % of control

O=C(N/N=C/c1cc(Br)cc(Br)c1[O-])c1ccccc1.O=C(N/N=C/c1cc(Br)cc(Br)c1[O-])c1ccccc1.[Mn+2]
T/C [4]: 95 % of control | T/C [5]: 101 % of control | T/C [6]: 98 % of control

CN1CCCC2c3ccccc3CCC21 (configuration not stated)
T/C (dose: 12.5 mg/kg/injection, schedule: Q04DX003 (ip), vehicle: Klucel (hydroxypropylcellulose) (HPC)): 104 % of control | T/C (dose: 25.0 mg/kg/injection, schedule: Q04DX003 (ip), vehicle: Klucel (hydroxypropylcellulose) (HPC)): 101 % of control
